# Source: ChEMBL document CHEMBL1201862, “PubChem BioAssay data set” (2004)
# The source made the active and inactive calls. Rule as the data show it: actives have a measured IC50 and inactives only a lower limit.
# Target: Envelope glycoprotein gp160 (Human immunodeficiency virus 1, UniProt Q6QLK5)
# Assay: cell-free HIV fusion peptide-binding blockers – biochemical, uHTS, fluorescence dequenching, […] (AID 1986)
# Sequence of Envelope glycoprotein gp160 (Q6QLK5 whole entry, the tested form may be a part): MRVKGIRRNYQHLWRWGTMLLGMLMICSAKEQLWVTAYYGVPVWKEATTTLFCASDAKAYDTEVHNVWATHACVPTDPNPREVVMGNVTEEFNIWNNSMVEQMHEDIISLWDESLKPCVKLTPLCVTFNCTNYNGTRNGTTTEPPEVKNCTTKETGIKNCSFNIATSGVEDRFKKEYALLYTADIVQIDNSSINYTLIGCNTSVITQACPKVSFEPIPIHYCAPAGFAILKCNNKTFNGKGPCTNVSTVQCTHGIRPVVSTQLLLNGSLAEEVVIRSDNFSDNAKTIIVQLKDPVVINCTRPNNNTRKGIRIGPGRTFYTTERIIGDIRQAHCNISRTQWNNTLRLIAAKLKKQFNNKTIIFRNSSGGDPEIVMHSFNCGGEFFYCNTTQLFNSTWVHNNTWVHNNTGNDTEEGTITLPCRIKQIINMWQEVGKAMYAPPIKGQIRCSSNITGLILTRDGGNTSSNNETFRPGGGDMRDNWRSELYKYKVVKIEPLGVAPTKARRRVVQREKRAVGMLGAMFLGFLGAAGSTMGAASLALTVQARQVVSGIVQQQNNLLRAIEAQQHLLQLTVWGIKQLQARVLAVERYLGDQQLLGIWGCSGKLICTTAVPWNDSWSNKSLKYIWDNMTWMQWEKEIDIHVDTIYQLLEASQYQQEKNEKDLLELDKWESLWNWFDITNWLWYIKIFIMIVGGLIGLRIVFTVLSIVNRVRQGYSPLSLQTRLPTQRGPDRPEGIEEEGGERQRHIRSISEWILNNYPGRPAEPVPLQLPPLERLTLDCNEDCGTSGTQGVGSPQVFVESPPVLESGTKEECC
compound,measurement,value
O=C1Nc2ccc(Br)cc2/C1=C1/SC(=S)N(NS(=O)(=O)c2ccccc2)C1=O,IC50,23.9 µM (active)
